Experimental data reported in patent US10765674B2, “Prevention of HIV-infection” (Janssen Sciences Ireland Unlimited Company, priority 2005, dated 2020).
Read-outs that look alike come from different tables or passages of the source.

Assay: Plasma kinetics of TMC278 in beagle dogs after single intramuscular administration
Format: in vivo
Conditions: single IM 2.5 mg/kg, aqueous 30% DMA/50% PEG400 solution; for half-life / Cmax / Tmax / AUC(0-t): im; for AUC(0-t): read-out: AUC0-312 h; for concentration at 0 h: 0 h (predose); for concentration at 0.5 h: 0.5 h after dose; for concentration at 1 h: 1 h after dose; for concentration at 2 h: 2 h after dose; for concentration at 4 h: 4 h after dose; for concentration at 8 h: 8 h after dose; for concentration at 24 h: 24 h after dose; for concentration at 32 h: 32 h after dose; for concentration at 48 h: 48 h after dose; for concentration at 72 h: 72 h after dose; for concentration at 96 h: 96 h after dose; for concentration at 144 h: 144 h after dose; for concentration at 192 h: 192 h after dose; for concentration at 240 h: 240 h after dose; for concentration at 312 h: 312 h after dose; for concentration at 36 day: day 36; for concentration at 50 day: day 50; for concentration at 64 day: day 64; for concentration at 78 day: day 78; for concentration at 92 day: day 92; for concentration at 106 day: day 106; for concentration at 120 day: day 120; for concentration at 134 day: day 134; for concentration at 148 day: day 148
Description: The present study was performed in order to study the plasma kinetics and the absolute bioavailability of TMC278 in beagle dogs after single intramuscular administration (IM) of an aqueous 30% dimethylacetamide (DMA)/50% polyethylene glycol 400 (PEG400) solution of TMC278 at 2.5 mg/kg. The dogs were dosed IM.
Two male beagle dogs (dog No. 16924 and 16854), approximately 3 years old and weighing between 11 and 12 kg at the start of the experimental phase, were used in the present experiment. The dogs were dosed intramuscularly at 0.1 ml/kg body weight by injecting the formulation in the left (dog No. 16924) or right (dog No. 16854) m. biceps femoris.
One day before dose administration, TMC278 was formulated in an aqueous 30% (w/v) DMA/50% (w/v) PEG400 solution at 25 mg/ml. The ingredients of the solution were: TMC278, DMA 30% (w/v), PEG 400 50% (w/v) and pyrogenic free water. The content of TMC278 in the formulation was checked using LC. The concentration of TMC278 in the formulation was 25 mg/ml.
Blood samples (4 ml on EDTA) were taken from a jugular vein from the dogs at 0 (=predose), 0.5, 1, 2, 4, 8, 24, 32, 48, 72, 96, 144, 192, 240 and 312 h after dose administration. After sampling, the blood samples were immediately placed on melting ice and protected from light. Blood samples were centrifuged at approximately 1900×g for 10 minutes at 5° C. to allow plasma separation. Immediately after separation, plasma samples were protected from light, placed on melting ice and stored at ≤−18° C. until analysis. Frozen plasma samples were transferred to the Bioanalytical Department. Since TMC278 was still detectable in the plasma samples at 312 h post-dose, additional blood samples of both dogs were collected on the days 36, 50, 64, 78, 92, 106, 120, 134 and 148. These samples were analogously processed and analysed.
The concentration of TMC278 in dog plasma was determined by a qualified research LC-MS/MS method after solid phase extraction (SPE). Plasma concentrations of TMC278 were determined after proper sample clean up. The samples (0.1 ml aliquots of plasma) were extracted using a solid phase extraction method (Bond Elut Certify solid phase columns, 130 mg, SPE, Varian). The SPE column was conditioned with 3 ml methanol, 3 ml water and 1 ml acetic acid 1 M.
After addition of 3 ml acetic acid to 0.1 ml aliquots of plasma, the samples were extracted on the column followed by washing the column with 1 ml water, 1 ml acetic acid 1 M and 3 ml methanol. The column was eluted with 3 ml methanol/NH4OH 25% (98:2, v/v). The extract was evaporated to dryness and reconstituted in 150 μl of ammonium formate 0.01 M (adjusted to pH 4 with formic acid)/methanol (50/50). 20 μl-aliquots were injected onto a reversed phase LC-column (100×4.6 mm ID, packed with 3 μm Hypersil C18 BDS) with a flow of 800 μl/min. The elution mixture was ammonium formate 0.01 M (adjusted to pH 4 with formic acid)/methanol (40:60, v/v). The flow-rate to the mass spectrometer was about 100 μl/min after splitting. LC-MS/MS analysis was carried out on an API-3000 system (Applied Biosystems), which was coupled to an HPLC-system.
Individual plasma concentration-time profiles were subjected to a non-compartmental pharmacokinetic analysis. Peak plasma concentrations (Cmax) and corresponding peak times (Tmax) were determined. The AUC from time 0 to time t (AUC0-t, where t is the time point associated with the last measurable concentration above the limit of quantification) was calculated by means of the linear/log trapezoidal rule: i.e. linear trapezoidal rule up to Tmax: AUC0-Tmax=Σ[(ti+1−ti). (Ci+Ci+1)/2], and log trapezoidal for the remainder of the curve: AUCTmax-t=Σ[(ti+1−ti). (Ci−Ci+1)/ln(Ci/Ci+1)], Ci and Ci+1 being the plasma concentrations at times ti and ti+1, respectively. […]

[1] = male, beagle, dog, plasma, 2.5 mg/kg, dog No. 16854
[2] = male, beagle, dog, plasma, 2.5 mg/kg, dog No. 16924
[3] = male, beagle, dog, plasma, 2.5 mg/kg, mean (n=2)
[4] = male, beagle, dog, plasma, intramuscular, 2.5 mg/kg, dog No. 16854
[5] = male, beagle, dog, plasma, intramuscular, 2.5 mg/kg, dog No. 16854, read-out: plasma concentration during the wash-out period
[6] = male, beagle, dog, plasma, intramuscular, 2.5 mg/kg, dog No. 16924
[7] = male, beagle, dog, plasma, intramuscular, 2.5 mg/kg, dog No. 16924, read-out: plasma concentration during the wash-out period
[8] = male, beagle, dog, plasma, intramuscular, 2.5 mg/kg, mean (n=2)
[9] = male, beagle, dog, plasma, intramuscular, 2.5 mg/kg, mean (n=2), read-out: plasma concentration during the wash-out period

plasma levels during the wash-out period (range) (both dogs, days 36 to 148): 1.24 to 4.23 ng/mL | plasma concentration during the wash-out period (dog No. 16924, day 272): <1.00 ng/mL | half-life (male, beagle, dog, plasma, 2.5 mg/kg, dog No. 16854, half-life between 8 h and 24 h, read-out: t1/2, 8-24 h (converted)): 8.9 h | Cmax [1]: 39.9 ng/mL | Tmax [1]: 8 h | AUC(0-t) [1]: 2120 ng·h/mL | half-life (male, beagle, dog, plasma, 2.5 mg/kg, dog No. 16854, read-out: t1/2, 24-72 h (converted)): 75.2 h | half-life (male, beagle, dog, plasma, 2.5 mg/kg, dog No. 16924, half-life between 1 h and 24 h, read-out: t1/2, 1-24 h (converted)): 15.1 h | Cmax [2]: 23.8 ng/mL | Tmax [2]: 1 h | AUC(0-t) [2]: 1600 ng·h/mL | half-life (male, beagle, dog, plasma, 2.5 mg/kg, dog No. 16924, read-out: t1/2, 24-72 h (converted)): 51 h | Cmax [3]: 31.9 ng/mL | Tmax [3]: 5 h | AUC(0-t) [3]: 1860 ng·h/mL | half-life (male, beagle, dog, plasma, 2.5 mg/kg, mean (n=2), read-out: t1/2, 24-72 h (converted)): 63 h | concentration at 0 h [4]: < 1 ng/mL | concentration at 0.5 h [4]: 13.5 ng/mL | concentration at 1 h [4]: 17 ng/mL | concentration at 2 h [4]: 20.6 ng/mL | concentration at 4 h [4]: 27.2 ng/mL | concentration at 8 h [4]: 39.9 ng/mL | concentration at 24 h [4]: 11.4 ng/mL | concentration at 32 h [4]: 10.7 ng/mL | concentration at 48 h [4]: 9.03 ng/mL | concentration at 72 h [4]: 7.37 ng/mL | concentration at 96 h [4]: 6.4 ng/mL | concentration at 144 h [4]: 3.19 ng/mL | concentration at 192 h [4]: 2.8 ng/mL | concentration at 240 h [4]: 6.16 ng/mL | concentration at 312 h [4]: 4.24 ng/mL | concentration at 36 day [5]: 3.66 ng/mL | concentration at 50 day [5]: 4.1 ng/mL | concentration at 64 day [5]: 2.18 ng/mL | concentration at 78 day [5]: 2.62 ng/mL | concentration at 92 day [5]: 2.32 ng/mL | concentration at 106 day [5]: 2.02 ng/mL | concentration at 120 day [5]: 1.87 ng/mL | concentration at 134 day [5]: 1.67 ng/mL | concentration at 148 day [5]: 1.41 ng/mL | concentration at 0 h [6]: < 1 ng/mL | concentration at 0.5 h [6]: 21.3 ng/mL | concentration at 1 h [6]: 23.8 ng/mL | concentration at 2 h [6]: 20.9 ng/mL | concentration at 4 h [6]: 17.1 ng/mL | concentration at 8 h [6]: 15.1 ng/mL | concentration at 24 h [6]: 7.7 ng/mL | concentration at 32 h [6]: 6.65 ng/mL | concentration at 48 h [6]: 6.03 ng/mL | concentration at 72 h [6]: 3.9 ng/mL | concentration at 96 h [6]: 3.97 ng/mL | concentration at 144 h [6]: 3.65 ng/mL | concentration at 192 h [6]: 3.57 ng/mL | concentration at 240 h [6]: 4.38 ng/mL | concentration at 312 h [6]: 5.97 ng/mL | concentration at 36 day [7]: 3.05 ng/mL | concentration at 50 day [7]: 2.12 ng/mL | concentration at 64 day [7]: 2.42 ng/mL | concentration at 78 day [7]: 1.69 ng/mL | concentration at 92 day [7]: 2.51 ng/mL | concentration at 106 day [7]: 1.75 ng/mL | concentration at 120 day [7]: 4.23 ng/mL | concentration at 134 day [7]: 1.61 ng/mL | concentration at 148 day [7]: 1.24 ng/mL | concentration at 272 day (male, beagle, dog, plasma, intramuscular, 2.5 mg/kg, dog No. 16924, day 272, read-out: plasma concentration during the wash-out period): < 1 ng/mL | concentration at 0 h [8]: < 1 ng/mL | concentration at 0.5 h [8]: 17.4 ng/mL | concentration at 1 h [8]: 20.4 ng/mL | concentration at 2 h [8]: 20.8 ng/mL | concentration at 4 h [8]: 22.2 ng/mL | concentration at 8 h [8]: 27.5 ng/mL | concentration at 24 h [8]: 9.55 ng/mL | concentration at 32 h [8]: 8.68 ng/mL | concentration at 48 h [8]: 7.53 ng/mL | concentration at 72 h [8]: 5.64 ng/mL | concentration at 96 h [8]: 5.19 ng/mL | concentration at 144 h [8]: 3.42 ng/mL | concentration at 192 h [8]: 3.19 ng/mL | concentration at 240 h [8]: 5.27 ng/mL | concentration at 312 h [8]: 5.11 ng/mL | concentration at 36 day [9]: 3.36 ng/mL | concentration at 50 day [9]: 3.11 ng/mL | concentration at 64 day [9]: 2.3 ng/mL | concentration at 78 day [9]: 2.16 ng/mL | concentration at 92 day [9]: 2.42 ng/mL | concentration at 106 day [9]: 1.89 ng/mL | concentration at 120 day [9]: 3.05 ng/mL | concentration at 134 day [9]: 1.64 ng/mL | concentration at 148 day [9]: 1.33 ng/mL | t1/2, 24-72 h (mean (n=2)): 63.1 h
SMILES: Cc1cc(C=CC#N)cc(C)c1Nc1ccnc(Nc2ccc(C#N)cc2)n1 [TMC278, 4-[[4-[[4-(2-cyanoethenyl)-2,6-dimethylphenyl]amino]-2-pyrimidinyl]-amino]benzonitrile]
